{"source": "patent US9403866B2", "about": "“Compositions and methods for increasing telomerase activity” (Telomerase Activation Sciences, Inc., priority 2009, dated 2016)", "key": {"[1]": {"test_system": "lung fibroblasts", "assay": "Long-term culture of lung fibroblasts", "type": "cell-based, human"}, "[2]": {"assay": "Plasma levels and bioavailability in mice", "type": "in vivo, male C57BL/6 mice", "details": "male, C57BL/6, mouse, 10 mg/kg, 2% EtOH/98% water, read-out: Bioavailability % F", "description": "The plasma levels of a compound following a single intravenous, oral, intra-peritoneal, or sub-cutaneous administration in male C57BL/6 mice was determined. Plasma samples were collected and used to determine the plasma concentration of the compound and metabolites. In addition tissue samples, including whisker samples, and peripheral blood mononuclear cells (PBMC) cells were collected for telomerase activity analysis.\n(§1) C57BL16 mice were divided into treatment groups. The mice were provided ad libitum SLAC-MO1 #W080208 (Shanghai Laboratories Animal Center, Shanghai, China) throughout the in-life portion of the study with the exception of the overnight fasting period prior to oral dosing. Water was available ad libitum.\n(§2) Body weights were taken on the day of dose administration. Dose volume was determined based on individual body weight taken on day of dosing.\nBlood samples (approximately 300 μL) were collected via cardiac puncture or via retro-orbital puncture after anesthesia into tubes containing K2-EDTA anticoagulant and 1 mg/ml NaF at the various time points after dosing. Blood was stored on ice and then plasma separated via centrifugation (8000 rpm×6 minutes). The plasma was stored at […] until LC-MS/MS analysis."}, "[3]": {"test_system": "wild-type mouse lineage-depleted bone marrow cells", "assay": "Colony formation assay of wild-type mouse lineage-depleted bone marrow cells", "type": "cell-based", "details": "12 days", "description": "Mouse bone marrow-derived lineage-depleted cells (enriched for hematopoietic stem and progenitor cells but not a pure population) were obtained. Wild-type mouse lineage-depleted bone marrow cells from two separate mice were plated into a standard colony formation assay in the presence of compound 4 (100 nM and 500 nM), vehicle (0.1% DMSO), or nothing. After 12 days, hematopoietic colonies were enumerated (BFU-E, CFU-GM, and CFU-GEMM)."}, "[4]": {"test_system": "huCD34+ cells", "assay": "Colony formation assay of huCD34+ cells", "type": "cell-based, human", "details": "100 nM, 14 days", "description": "Human hematopoietic progenitor CD34+ cells (healthy donor) were plated into a standard colony formation assay in the presence of compound 4 (100 nM), vehicle (0.1% DMSO), or nothing. After 14 days, hematopoietic colonies were enumerated (CFU-E, […], CFU-GM, and CFU-GEMM). The plates containing compound 4 had 17% more colony forming units than vehicle alone. (Total colony counts were: untreated, 106.5; vehicle-treated, 103.5; compound 4-treated, 121.5)"}, "[5]": {"assay": "Plasma levels and bioavailability in rats", "details": "male, Sprague Dawley, rat, in vivo, po, 10 mg/kg", "description": "The plasma levels of a compound following a single intravenous and oral administration in carotid artery-cannulated male Sprague Dawley rats was determined. Plasma samples were collected and used to determine the plasma concentration of the compound and metabolites. In addition tissue samples, including whisker samples and PBMC cells were collected for telomerase activity analysis.\nas §1, with “Carotid artery-cannulated male Sprague Dawley rats” for “C57BL16 mice”, “groups according to Table 6.” for “groups.”, “rats” for “mice”, “# YY080208” for “#W080208”\nThe compounds were dissolved in 2% EtOH/98% water to yield a final concentration of 2.5 mg/ml and 1 mg/ml for both intravenous and oral administration, respectively. The concentration of each compound was confirmed by HPLC analysis.\nas §2\nBlood samples (approximately 250 μL) were collected via cannulae into tubes containing K2-EDTA anticoagulant and 1 mg/ml NaF at the various time points. Blood was stored on ice and then plasma separated via centrifugation (8000 rpm×6 minutes). The plasma was stored at […] until LC-MS/MS analysis.\nPercentage of bioavailability was calculated."}, "[6]": {"target": "telomerase (Homo sapiens, UniProt O14746)", "sequence (O14746 whole entry)": "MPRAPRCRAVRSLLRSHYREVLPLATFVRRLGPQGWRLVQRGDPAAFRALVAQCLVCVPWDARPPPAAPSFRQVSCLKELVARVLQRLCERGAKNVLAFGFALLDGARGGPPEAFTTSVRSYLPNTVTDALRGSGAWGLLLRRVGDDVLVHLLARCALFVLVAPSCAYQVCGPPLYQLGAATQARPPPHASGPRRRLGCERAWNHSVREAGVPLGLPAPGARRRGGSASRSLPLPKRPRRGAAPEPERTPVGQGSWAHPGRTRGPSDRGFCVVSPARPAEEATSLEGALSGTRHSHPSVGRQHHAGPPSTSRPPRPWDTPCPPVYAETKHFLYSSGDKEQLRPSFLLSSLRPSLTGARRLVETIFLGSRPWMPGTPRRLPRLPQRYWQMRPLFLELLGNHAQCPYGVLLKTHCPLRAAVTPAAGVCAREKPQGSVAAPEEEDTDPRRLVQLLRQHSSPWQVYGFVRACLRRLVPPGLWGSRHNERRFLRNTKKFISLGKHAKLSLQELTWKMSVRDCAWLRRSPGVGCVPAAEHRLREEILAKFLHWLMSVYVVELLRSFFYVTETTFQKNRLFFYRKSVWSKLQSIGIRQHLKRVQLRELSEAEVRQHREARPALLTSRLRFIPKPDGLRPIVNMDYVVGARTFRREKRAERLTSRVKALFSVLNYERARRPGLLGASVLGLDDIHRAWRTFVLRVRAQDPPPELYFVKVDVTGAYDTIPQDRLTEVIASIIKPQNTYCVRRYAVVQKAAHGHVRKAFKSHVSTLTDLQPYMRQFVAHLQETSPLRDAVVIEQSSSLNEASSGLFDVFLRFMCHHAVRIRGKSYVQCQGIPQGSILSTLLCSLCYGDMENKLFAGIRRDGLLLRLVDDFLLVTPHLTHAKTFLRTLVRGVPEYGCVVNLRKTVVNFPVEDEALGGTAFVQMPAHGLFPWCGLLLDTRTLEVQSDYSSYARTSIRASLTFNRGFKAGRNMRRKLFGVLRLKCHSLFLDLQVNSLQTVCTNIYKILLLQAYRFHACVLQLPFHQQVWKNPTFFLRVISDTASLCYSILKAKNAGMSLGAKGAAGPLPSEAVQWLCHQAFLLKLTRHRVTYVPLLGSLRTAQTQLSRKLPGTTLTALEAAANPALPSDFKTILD", "assay": "Keratinocyte cell/TRAP assay (HEKneo-P cells)", "type": "cell-based", "parameters": "host or cells: HEKneo-P (pooled neonatal human epidermal keratinocytes)", "details": "telomerase activation", "text": "Harley et al., U.S. Pat. […] Harley et al., U.S. Pat. […] Non-treatment control (NT) was also included. […]"}, "[7]": {"test_system": "Matrigel plugs; bone marrow stem/progenitor cells", "assay": "Administration to aging Tert (+/-) mice: hemoglobin and total RNA in Matrigel plugs, number of bone marrow stem/progenitor cells", "type": "in vivo, Tert (+/-) mice on a C57BL/6 background", "details": "10 mg/kg/day PO (BID)", "description": "Aging Tert (+/−) mice on a C57BL/6 background (8-9 months) were dosed with compound 4 at 10 mg/kg/day PO (BID) in 2% ethanol. Mice were pre-dosed for 1 day (Day −1). Matrigel™ was injected subcutaneously in the abdomen on Day 0, and plugs were harvested on Day 12.\nOne half of the plug was analyzed for telomerase activity and hemoglobin content, which is indicative of blood vessel formation (RBC cell buffer extraction, followed by M-PER extraction). The other half of the plug was processed for histology.\nThe Matrigel™ plug has a 1.2-fold increase in hemoglobin levels (p<0.2) n=15/group for mice treated with compound 4.\nTotal RNA, which reflects cell number, was increased 1.5-fold (p<0.1) n−15/group in Matrigel™ plugs after treatment with compound 4.\nBone marrow stem and progenitor cells were purified using lineage depletion magnetic sorting technology (Miltenyi MACS columns).\nThe number of purified bone marrow stem/progenitor cells increased 1.5-fold (p<0.1) n=6/group in mice treated with compound 4."}}, "note": "Where two headings read alike, the source gives them in different places.", "data": [{"smiles": "CC(C)C(N)C(=O)OC1CCC23CC24CCC2(C)C(C5(C)CCC(C(C)(C)O)O5)C(O)CC2(C)C4CC(O)C3C1(C)C", "note": "(stereo not drawn) [Compound 4, 2-(L)-Amino-3-methyl-butyric acid 6α,16β-dihydroxy-17-[5-(1-hydroxy-1-methyl-ethyl)-2-methyl-tetrahydro-furan-2-yl]-4,4,13,14-tetramethyl-tetradecahydro-cyclopropa[9,10]cyclopenta[a]phenanthren-3β-yl ester]", "values": [{"measurement": "effect in long-term culture", "setting": "[1]", "value": "No effect"}, {"measurement": "bioavailability", "setting": "[2]; PO", "value": 48, "unit": "%"}, {"measurement": "bioavailability", "setting": "[2]; SC", "value": 66, "unit": "%"}, {"measurement": "BFU-E colonies", "setting": "[3]; Mouse 1, 100 nM", "value": 50}, {"measurement": "CFU-GEMM colonies", "setting": "[3]; Mouse 1, 100 nM", "value": 0}, {"measurement": "CFU-GM colonies", "setting": "[3]; Mouse 1, 100 nM", "value": 111}, {"measurement": "Total colony counts", "setting": "[3]; Mouse 1, 100 nM", "value": 161}, {"measurement": "BFU-E colonies", "setting": "[3]; Mouse 1, 500 nM", "value": 38}, {"measurement": "CFU-GEMM colonies", "setting": "[3]; Mouse 1, 500 nM", "value": 1}, {"measurement": "CFU-GM colonies", "setting": "[3]; Mouse 1, 500 nM", "value": 124}, {"measurement": "Total colony counts", "setting": "[3]; Mouse 1, 500 nM", "value": 162}, {"measurement": "BFU-E colonies", "setting": "[3]; Mouse 2, 100 nM", "value": 31}, {"measurement": "CFU-GEMM colonies", "setting": "[3]; Mouse 2, 100 nM", "value": 1}, {"measurement": "CFU-GM colonies", "setting": "[3]; Mouse 2, 100 nM", "value": 90}, {"measurement": "Total colony counts", "setting": "[3]; Mouse 2, 100 nM", "value": 121}, {"measurement": "BFU-E colonies", "setting": "[3]; Mouse 2, 500 nM", "value": 29}, {"measurement": "CFU-GEMM colonies", "setting": "[3]; Mouse 2, 500 nM", "value": 2}, {"measurement": "CFU-GM colonies", "setting": "[3]; Mouse 2, 500 nM", "value": 98}, {"measurement": "Total colony counts", "setting": "[3]; Mouse 2, 500 nM", "value": 129}, {"measurement": "BFU-E colonies", "setting": "[4]", "value": 25.5}, {"measurement": "CFU-E colonies", "setting": "[4]", "value": 11}, {"measurement": "CFU-GEMM colonies", "setting": "[4]", "value": 5}, {"measurement": "CFU-GM colonies", "setting": "[4]", "value": 80}, {"measurement": "Total colony counts", "setting": "[4]", "value": 121.5}, {"measurement": "more colony forming units than vehicle alone", "setting": "[4]", "value": 17, "unit": "%"}, {"measurement": "Bioavailability % F", "setting": "[5]", "value": 36, "unit": "%"}, {"measurement": "EC50", "setting": "[6]", "value": "6 to 22", "unit": "nM"}, {"measurement": "Total RNA (reflects cell number) increase in Matrigel plugs", "setting": "[7]; p<0.1", "value": 1.5, "unit": "fold"}, {"measurement": "increase in number of purified bone marrow stem/progenitor cells", "setting": "[7]; p<0.1", "value": 1.5, "unit": "fold"}, {"measurement": "increase in hemoglobin levels in the Matrigel plug", "setting": "[7]; p<0.2", "value": 1.2, "unit": "fold"}]}]}
